This is an account of results in US20180237441A1, “Chemical Compounds” (GlaxoSmithKline Intellectual Property (No.2) Limited, priority 2015, published 2018).

In the first experiment the target is T1, PERK (Homo sapiens, UniProt Q9NZJ5).
T1 sequence (Q9NZJ5 30-1116): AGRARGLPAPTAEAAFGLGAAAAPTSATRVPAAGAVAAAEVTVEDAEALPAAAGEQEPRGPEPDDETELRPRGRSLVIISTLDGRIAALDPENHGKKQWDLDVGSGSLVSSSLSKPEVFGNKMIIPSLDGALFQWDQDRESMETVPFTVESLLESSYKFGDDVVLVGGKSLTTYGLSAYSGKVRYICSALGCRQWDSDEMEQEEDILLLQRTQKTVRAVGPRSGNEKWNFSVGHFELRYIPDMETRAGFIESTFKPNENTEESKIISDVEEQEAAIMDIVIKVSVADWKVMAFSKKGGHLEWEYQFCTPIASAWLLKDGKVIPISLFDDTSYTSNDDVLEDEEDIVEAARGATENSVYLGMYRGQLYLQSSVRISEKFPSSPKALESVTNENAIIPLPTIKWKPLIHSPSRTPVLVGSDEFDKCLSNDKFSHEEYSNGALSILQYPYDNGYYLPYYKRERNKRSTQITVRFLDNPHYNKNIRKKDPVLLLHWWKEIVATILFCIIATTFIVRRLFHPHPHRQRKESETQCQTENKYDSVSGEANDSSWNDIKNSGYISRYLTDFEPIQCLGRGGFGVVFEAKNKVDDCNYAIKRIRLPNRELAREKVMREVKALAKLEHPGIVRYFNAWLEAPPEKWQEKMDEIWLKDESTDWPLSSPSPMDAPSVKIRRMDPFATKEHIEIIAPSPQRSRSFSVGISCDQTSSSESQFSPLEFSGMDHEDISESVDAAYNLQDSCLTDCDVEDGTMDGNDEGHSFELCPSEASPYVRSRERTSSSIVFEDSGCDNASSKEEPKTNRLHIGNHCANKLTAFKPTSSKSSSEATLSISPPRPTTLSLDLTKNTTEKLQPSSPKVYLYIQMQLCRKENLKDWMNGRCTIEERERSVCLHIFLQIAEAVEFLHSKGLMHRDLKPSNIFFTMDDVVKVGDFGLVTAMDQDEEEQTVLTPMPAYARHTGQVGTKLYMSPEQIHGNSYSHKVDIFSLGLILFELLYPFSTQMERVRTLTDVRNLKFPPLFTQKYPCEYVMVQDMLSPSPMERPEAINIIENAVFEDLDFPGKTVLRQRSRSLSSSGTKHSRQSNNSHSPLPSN
In words: PERK enzyme assay (HTRF). In kind it is biochemical. As to conditions: 500 μM ATP; at least one experimental run; read-out: PERK Enzyme (500 μM ATP) IC50. Put shortly:
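GST-PERK (0.75 nM final) pre-incubated 30–60 min with compound (≤1% DMSO) in HEPES pH 7.5/CHAPS/MgCl2/DTT, then 500 μM ATP and 40 nM biotin-eIF2α added for 60 min. EDTA quench; HTRF detection of phospho-eIF2α (Eu anti-rabbit/streptavidin-APC) read after 2 h; IC50 from concentration series.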
(In TR-FRET formats the signal depends on donor and acceptor labels being close together.)
`CN1C(=O)N(c2ccc(-c3cn(C)c4ncnc(N)c34)c(Cl)c2)CC1c1cc(F)cc(F)c1` (single isomer, unassigned) [Example 127, 1-(4-(4-amino-7-methyl-7H-pyrrolo[2,3-d]pyrimidin-5-yl)-3-chlorophenyl)-4-(3,5-difluorophenyl)-3-methylimidazolidin-2-one]: the IC50 was 6.1 nM.

Consider `CC(C)n1cc(-c2ccc(N3CC(c4ccc(F)cc4F)N(C)C3=O)cc2F)c2c(N)ncnc21` (stereo not shown) [Example 92, 1-(4-(4-amino-7-isopropyl-7H-pyrrolo[2,3-d]pyrimidin-5-yl)-3-fluorophenyl)-4-(2,4-difluorophenyl)-3-methylimidazolidin-2-one], for which the IC50 was 351 nM.

For `CN1C(=O)N(c2ccc(-c3cn(C)c4ncnc(N)c34)c(F)c2)CC1c1cc(F)cc(F)c1` (single isomer, unassigned) [Example 100, 1-(4-(4-amino-7-methyl-7H-pyrrolo[2,3-d]pyrimidin-5-yl)-3-fluorophenyl)-4-(3,5-difluorophenyl)-3-methylimidazolidin-2-one], the IC50 stood at 3 nM.

Staying with this experiment, now noted: PERK Enzyme (500 μM ATP) IC50; at least one experimental run; read-out: PERK Activity.
`CN1C(=O)N(c2ccc(-c3cn(C)c4ncnc(N)c34)c(Cl)c2)CC1c1cc(F)cc(F)c1` (single isomer, unassigned) [Example 127, 1-(4-(4-amino-7-methyl-7H-pyrrolo[2,3-d]pyrimidin-5-yl)-3-chlorophenyl)-4-(3,5-difluorophenyl)-3-methylimidazolidin-2-one]: the IC50 was under 100 nM.

In the case of `CN1C(=O)N(c2ccc(-c3cn(C4CC4)c4ncnc(N)c34)c(F)c2)CC1c1ccc(F)c(F)c1` (single isomer, unassigned) [Example 116, 1-(4-(4-amino-7-cyclopropyl-7H-pyrrolo[2,3-d]pyrimidin-5-yl)-3-fluorophenyl)-4-(3,4-difluorophenyl)-3-methylimidazolidin-2-one], the IC50 was under 100 nM.

For the molecule `CN1C(=O)N(c2ccc(-c3cn(C)c4ncnc(N)c34)c(F)c2)CC1c1cc(Cl)ccc1F` (stereo not shown) [Example 53, 1-(4-(4-amino-7-methyl-7H-pyrrolo[2,3-d]pyrimidin-5-yl)-3-fluorophenyl)-4-(5-chloro-2-fluorophenyl)-3-methylimidazolidin-2-one], the IC50 fell in the range of 100 to 1000 nM.

On to `CN1C(=O)N(c2ccc(-c3cn(C4CC4)c4ncnc(N)c34)c(F)c2)CC1c1cc(F)cc(F)c1F` (single isomer, unassigned) [Example 143, 1-(4-(4-amino-7-cyclopropyl-7H-pyrrolo[2,3-d]pyrimidin-5-yl)-3-fluorophenyl)-3-methyl-4-(2,3,5-trifluorophenyl)imidazolidin-2-one], for which the IC50 was 100 to 1000 nM.

As to `CC(C)n1cc(-c2ccc(N3CC(c4cc(F)ccc4F)N(C)C3=O)cc2F)c2c(N)ncnc21` (single isomer, unassigned) [Example 86, 1-(4-(4-amino-7-isopropyl-7H-pyrrolo[2,3-d]pyrimidin-5-yl)-3-fluorophenyl)-4-(2,5-difluorophenyl)-3-methylimidazolidin-2-one], the IC50 was 100 to 1000 nM.

Turning to `CC(C)n1cc(-c2ccc(N3CC(c4ccc(F)cc4F)N(C)C3=O)cc2F)c2c(N)ncnc21` (stereo not shown) [Example 92, 1-(4-(4-amino-7-isopropyl-7H-pyrrolo[2,3-d]pyrimidin-5-yl)-3-fluorophenyl)-4-(2,4-difluorophenyl)-3-methylimidazolidin-2-one], the IC50 lay within 100 to 1000 nM.

`Cc1nc(N)c2c(-c3ccc(N4CC(c5ccc(F)cc5F)N(C)C4=O)cc3F)nn(C)c2n1` (single isomer, unassigned) [Example 13, 1-(4-(4-amino-1,6-dimethyl-1H-pyrazolo[3,4-d]pyrimidin-3-yl)-3-fluorophenyl)-4-(2,4-difluorophenyl)-3-methylimidazolidin-2-one]: the IC50 is over 1000 nM.

For the molecule `CN1C(=O)N(c2ccc(-c3cn(C)c4ncnc(N)c34)c(Cl)c2)CC1c1cc(F)cc(F)c1` (stereo not shown) [Example 121, 1-(4-(4-amino-7-methyl-7H-pyrrolo[2,3-d]pyrimidin-5-yl)-3-chlorophenyl)-4-(3,5-difluorophenyl)-3-methylimidazolidin-2-one], the IC50 is under 100 nM.

In the case of `Cc1nc(N)c2c(-c3ccc(N4CC(c5cc(F)ccc5F)N(C)C4=O)cc3F)cn(C)c2n1` (single isomer, unassigned) [Example 37, 1-(4-(4-amino-2,7-dimethyl-7H-pyrrolo[2,3-d]pyrimidin-5-yl)-3-fluorophenyl)-4-(2,5-difluorophenyl)-3-methylimidazolidin-2-one], the IC50 lay within 100 to 1000 nM.

With `CCN1C(=O)N(c2ccc(-c3cn(C)c4ncnc(N)c34)c(F)c2)CC1c1cccc(Cl)c1F` (stereo not shown) [Example 22, 1-(4-(4-amino-7-methyl-7H-pyrrolo[2,3-d]pyrimidin-5-yl)-3-fluorophenyl)-4-(3-chloro-2-fluorophenyl)-3-ethylimidazolidin-2-one], the IC50 fell in the range of 100 to 1000 nM.

Turning to `CN1C(=O)N(c2ccc(-c3cn(C)c4ncnc(N)c34)cn2)CC1c1cc(F)ccc1F` (stereo not shown) [Example 40, 1-(5-(4-amino-7-methyl-7H-pyrrolo[2,3-d]pyrimidin-5-yl)pyridin-2-yl)-4-(2,5-difluorophenyl)-3-methylimidazolidin-2-one], the IC50 was in the range of 100 to 1000 nM.

Consider `CCN1C(=O)N(c2ccc(-c3cn(C)c4nc(C)nc(N)c34)c(F)c2)CC1c1ccc(F)cc1F` (single isomer, unassigned) [Example 67, 1-(4-(4-amino-2,7-dimethyl-7H-pyrrolo[2,3-d]pyrimidin-5-yl)-3-fluorophenyl)-4-(2,4-difluorophenyl)-3-ethylimidazolidin-2-one], for which the IC50 lay within 100 to 1000 nM.

Take `CN1C(=O)N(c2ccc(-c3cn(C)c4ncnc(N)c34)c(F)c2)CC1c1cc(F)cc(F)c1` (single isomer, unassigned) [Example 100, 1-(4-(4-amino-7-methyl-7H-pyrrolo[2,3-d]pyrimidin-5-yl)-3-fluorophenyl)-4-(3,5-difluorophenyl)-3-methylimidazolidin-2-one]: the IC50 was under 100 nM.

Consider `CN1C(=O)N(c2ccc(-c3cn(C4CC4)c4ncnc(N)c34)c(F)c2)CC1c1cc(F)ccc1F` (single isomer, unassigned) [Example 146, 1-(4-(4-amino-7-cyclopropyl-7H-pyrrolo[2,3-d]pyrimidin-5-yl)-3-fluorophenyl)-4-(2,5-difluorophenyl)-3-methylimidazolidin-2-one], for which the IC50 was under 100 nM.

With `Cc1nc(N)c2c(-c3ccc(N4CC(c5cc(F)cc(F)c5)N(C)C4=O)cc3F)cn(C)c2n1` (single isomer, unassigned) [Example 104, 1-(4-(4-amino-2,7-dimethyl-7H-pyrrolo[2,3-d]pyrimidin-5-yl)-3-fluorophenyl)-4-(3,5-difluorophenyl)-3-methylimidazolidin-2-one], the IC50 is under 100 nM.

For the molecule `CN1C(=O)N(c2ccc(-c3cn(C)c4ncnc(N)c34)c(F)c2)CC1c1c(F)cccc1F` (stereo not shown) [Example 81, 1-(4-(4-amino-7-methyl-7H-pyrrolo[2,3-d]pyrimidin-5-yl)-3-fluorophenyl)-4-(2,6-difluorophenyl)-3-methylimidazolidin-2-one], the IC50 is under 100 nM.

`CCN1C(=O)N(c2ccc(-c3cn(C)c4ncnc(N)c34)cn2)CC1c1cc(F)ccc1F` (stereo not shown) [Example 41, 1-(5-(4-amino-7-methyl-7H-pyrrolo[2,3-d]pyrimidin-5-yl)pyridin-2-yl)-4-(2,5-difluorophenyl)-3-ethylimidazolidin-2-one]: the IC50 lay in the range of 100 to 1000 nM.

In the case of `CCN1C(=O)N(c2ccc(-c3cn(C)c4ncnc(N)c34)c(F)c2)CC1c1ccc(F)cc1F` (stereo not shown) [Example 23, 1-(4-(4-amino-7-methyl-7H-pyrrolo[2,3-d]pyrimidin-5-yl)-3-fluorophenyl)-4-(2,4-difluorophenyl)-3-ethylimidazolidin-2-one], the IC50 lay within 100 to 1000 nM.

In the case of `CCN1C(=O)N(c2ccc(-c3cn(C(C)C)c4ncnc(N)c34)c(F)c2)CC1c1cc(F)ccc1F` (stereo not shown) [Example 106, 1-(4-(4-amino-7-isopropyl-7H-pyrrolo[2,3-d]pyrimidin-5-yl)-3-fluorophenyl)-4-(2,5-difluorophenyl)-3-ethylimidazolidin-2-one], the IC50 is 100 to 1000 nM.

Take `CN1C(=O)N(c2ccc(-c3cn(C)c4ncnc(N)c34)c(F)c2)CC1c1ccc(F)c(Cl)c1` (single isomer, unassigned) [Example 133, 1-(4-(4-amino-7-methyl-7H-pyrrolo[2,3-d]pyrimidin-5-yl)-3-fluorophenyl)-4-(3-chloro-4-fluorophenyl)-3-methylimidazolidin-2-one]: the IC50 was under 100 nM.

On to `CN1C(=O)N(c2ccc(-c3cn(C)c4ncnc(N)c34)c(F)c2)CC1C1CCCCCC1` (stereo not shown) [Example 138, 1-(4-(4-amino-7-methyl-7H-pyrrolo[2,3-d]pyrimidin-5-yl)-3-fluorophenyl)-4-cycloheptyl-3-methylimidazolidin-2-one], for which the IC50 was under 100 nM.

`CN1C(=O)N(c2ccc(-c3cn(C)c4ncnc(N)c34)c(F)c2)CC1c1ccc(F)cc1` (stereo not shown) [Example 68, 1-(4-(4-amino-7-methyl-7H-pyrrolo[2,3-d]pyrimidin-5-yl)-3-fluorophenyl)-4-(4-fluorophenyl)-3-methylimidazolidin-2-one]: the IC50 was under 100 nM.
